In US20160039871A1, “NOVEL FORMS OF TELAPREVIR” (SANDOZ AG, priority 2012, published 2016):

Experiment: moisture sorption (Dynamic Vapor Sorption), water content versus relative humidity
Type: physicochemical
Description: The moisture sorption isotherms were recorded with a SPS-11 moisture sorption analyzer (MD Messtechnik, Ulm, D). […] The equilibrium condition for each step was set to a mass constancy of ±0.005% over 60 min. The temperature was 25±0.1° C.

Question: Which water content (relative humidity of about 40%) does the source give for `CCC[C@H](NC(=O)[C@@H]1[C@H]2CCC[C@H]2CN1C(=O)[C@@H](NC(=O)[C@@H](NC(=O)c1cnccn1)C1CCCCC1)C(C)(C)C)C(=O)C(=O)NC1CC1` [Form C, (1S,3aR,6aS)-2-[(2S)-2-[[(2S)-2-Cyclohexyl-2-(pyrazine-2-carbonylamino)acetyl]amino]-3,3-dimethylbutanoyl]-N-[(3S)-1-(cyclopropylamino)-1,2-dioxohexan-3-yl]-3,3a,4,5,6,6a-hexahydro-1H-cyclopenta[c]pyrrole-1-carboxamide] here?
Answer: The water content was “about 0.5 moles of water”.

Question: And the water content (relative humidity of about 70%-80%)?
Answer: The water content was “about 0.9 moles of water”.
